Source: PubChem BioAssay AID493086 (The Scripps Research Institute Molecular Screening Center, 2011)
Calls of active or inactive are those of the source.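 Rule for the calls: active = IC50 at or below 10 µM; inactive = IC50 above 10 µM.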

Molecular target: Induced myeloid leukemia cell differentiation protein Mcl-1 (Homo sapiens) (UniProt Q07820)
Test: blockers of MCL1–BIM BH3 interaction – biochemical, fluorescence polarization, assay provider data, powder samples, late-stage follow-up (AID 493086)
Details: GST-MCL1 / FITC-BIM-BH3 fluorescence polarization

Sequence of Induced myeloid leukemia cell differentiation protein Mcl-1 (Homo sapiens) (Q07820 whole entry, looked up): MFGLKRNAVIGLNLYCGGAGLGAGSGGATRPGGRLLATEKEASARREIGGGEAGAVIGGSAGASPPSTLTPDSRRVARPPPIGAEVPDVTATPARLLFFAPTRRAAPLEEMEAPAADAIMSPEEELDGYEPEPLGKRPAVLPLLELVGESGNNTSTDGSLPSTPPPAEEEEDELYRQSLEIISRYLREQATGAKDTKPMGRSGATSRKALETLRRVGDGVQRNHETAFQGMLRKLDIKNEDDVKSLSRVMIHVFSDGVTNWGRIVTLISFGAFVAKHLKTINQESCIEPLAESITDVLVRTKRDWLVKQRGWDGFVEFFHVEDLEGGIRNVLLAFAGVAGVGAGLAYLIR

Compound | IC50
Cc1ccc(-c2cc(C(=O)Nc3cccc(S(=O)(=O)N(C)C)c3)c3ccccc3n2)o1 | > 20 µM (inactive)
COc1cccc(NC(=O)c2cc(-c3ccc(C)o3)nc3ccccc23)c1 | > 20 µM (inactive)
COc1ccc(Cc2nnc(NC(=O)Cc3c[nH]c4ccccc34)s2)cc1OC | > 20 µM (inactive)
COc1cccc(CC(=O)Nc2nnc(Cc3ccc(OC)c(OC)c3)s2)c1 | > 20 µM (inactive)
CN(C)C(CNC(=O)c1cc(-c2ccco2)nc2ccccc12)c1ccccc1 (stereo not drawn) | > 20 µM (inactive)
COc1ccc(Cc2nnc(NC(=O)Cc3ccccn3)s2)cc1OC | > 20 µM (inactive)
CCCN(C(=O)c1cc(-c2ccco2)nc2ccccc12)c1c(N)n(Cc2ccccc2)c(=O)[nH]c1=O | inactive
NS(=O)(=O)c1ccc(CCNC(=O)c2cc(-c3ccco3)nc3ccccc23)cc1 | > 20 µM (inactive)
COc1ccccc1CC(=O)Nc1nnc(Cc2ccc(OC)c(OC)c2)s1 | > 20 µM (inactive)
Cc1ccc(-c2cc(C(=O)NCCCn3ccnc3)c3cc(Br)ccc3n2)o1 | inactive
Cc1ccc(-c2cc(C(=O)Nc3ccccc3C(N)=O)c3ccccc3n2)o1 | > 20 µM (inactive)
Cc1ccc(-c2cc(C(=O)Nc3ccccn3)c3ccccc3n2)o1 | inactive
COc1ccc(Cc2nnc(NC(=O)Cc3cccs3)s2)cc1 | > 20 µM (inactive)
COc1cccc(NC(=O)CN(C)C(=O)c2cc(-c3ccco3)nc3ccccc23)c1 | > 20 µM (inactive)
COc1ccc(Cc2nnc(NC(=O)Cc3ccc4c(c3)OCO4)s2)cc1OC | > 20 µM (inactive)
CN(CC(=O)Nc1ccc(F)cc1)C(=O)c1cc(-c2ccco2)nc2ccccc12 | > 20 µM (inactive)
COc1ccc(Cc2nnc(NC(=O)Cc3ccncc3)s2)cc1OC | > 20 µM (inactive)
COc1ccc(NC(=O)c2cc(-c3ccc(C)o3)nc3ccccc23)cc1 | > 20 µM (inactive)
O=C(CCn1nnc2ccccc21)Nc1nnc(Cc2ccc(F)cc2)s1 | > 20 µM (inactive)
COc1ccc(Cc2nnc(NC(=O)Cc3ccc(C)cc3)s2)cc1OC | > 20 µM (inactive)
O=C(NC(=S)Nc1cccc(S(=O)(=O)NC2=NCCC2)c1)c1cc(-c2ccco2)nc2ccccc12 | > 20 µM (inactive)
CCC(=O)Nc1nnc(Cc2ccccc2)s1 | > 20 µM (inactive)
CCCn1c(N)c(N(CCOC)C(=O)c2cc(-c3ccco3)nc3ccccc23)c(=O)[nH]c1=O | > 20 µM (inactive)
CCOC(=O)c1cc(-c2ccco2)nc2c1c(C)nn2-c1ccccc1 | > 20 µM (inactive)

Now from value to compound:

IC50 | Compound
inactive | Cc1nnc(NC(=O)c2cc(-c3ccco3)nc3ccccc23)s1
inactive | O=C(Nc1nncs1)c1cc(-c2ccco2)nc2ccccc12
7.3 µM | COC(=O)C1CCN(C(=O)c2cc(-c3ccco3)nc3ccccc23)CC1
> 20 µM (inactive) | Cc1ccc(-c2cc(C(=O)N3CCCC(C(F)(F)F)C3)c3ccccc3n2)o1 (stereo not drawn)
> 20 µM (inactive) | O=C(c1cc(-c2ccco2)nc2ccccc12)N1CCN(c2ccc(F)cc2)CC1
inactive | Cc1csc(NC(=O)c2cc(-c3ccco3)nc3ccccc23)n1
inactive | Cc1cccc(NC(=O)c2cc(-c3ccco3)nc3ccccc23)n1
> 20 µM (inactive) | Cc1ccc2nc(NC(=O)c3cc(-c4ccco4)nc4ccccc34)sc2c1
> 20 µM (inactive) | CC1CCCN(C(=O)c2cc(-c3ccco3)nc3ccccc23)C1 (stereo not drawn)
> 20 µM (inactive) | Cc1ccc(-c2cc(C(=O)N3CC(C)OC(C)C3)c3ccccc3n2)o1 (stereo not drawn)
> 20 µM (inactive) | CN(CCOc1ccccc1)C(=O)c1cc(-c2ccco2)nc2ccccc12
5.5 µM | CCOC(=O)C1CCCN(C(=O)c2cc(-c3ccco3)nc3ccccc23)C1 (stereo not drawn)
> 20 µM (inactive) | O=C(c1cc(-c2ccco2)nc2ccccc12)N1CCN(Cc2ccccc2)CC1
> 20 µM (inactive) | Cc1ccc(-c2cc(C(=O)N3CC(C)CC(C)C3)c3ccccc3n2)o1 (stereo not drawn)
